From patent publication US5874402A, “Use of cell membrane permeants in the treatment of cellular proliferative diseases” (Matrix Pharmaceutical, Inc., priority 1997, dated 1999)

Experiments:
RIF-1 tumors = experiment: RIF-1 murine tumor growth delay after intratumoral injection (days to 4× tumor volume; T/C); type: in vivo, murine (C3H mice); parameters: key to Treated (Table 7 column): days for tumors to reach 4x baseline volume
Method: (§1) When the introduced tumors reached 100 mm^3, the mice were ready for testing. During the course of the experiments, the treated and control tumors were measured three times per week by Vernier calipers and the tumor volumes were calculated using the following formula: […]
where D1 -D3 are tumor diameters in millimeters. The number of days for tumors to reach four times (4×) their baseline volume was used as a parameter of treatment effectiveness. Therefore, a longer delay in tumor growth meant greater antitumor efficacy.

C3H mice = experiment: Lethal toxicity (deaths) after intratumoral injection in RIF-1 tumor-bearing C3H mice; type: in vivo
Method: as §1, with “For each of the following experiments, transplantable murine fibrosarcoma RIF-1 tumors were grown intradermally in the flank of 3-7 month old female C3H mice (2×10^5 cells were injected). When” for “When”

ovarian cancer cells = conditions: in vitro; cells first exposed to digitonin; cited from earlier work
[1] = Table 6, agent 40 mg/kg (BFA: DMSO as solvent), saponin 10 mg/kg 1 hr prior where combined
[2] = Table 7, dose printed 10, 4 mg/kg (saponin, vinblastine)

## C[C@H]1CCC/C=C/[C@@H]2C[C@H](O)C[C@H]2[C@H](O)/C=C/C(=O)O1 [Brefeldin A(BFA), Brefeldin A]
RIF-1 tumors; [1]
  T/C (ratio of tumor growth delay of treated tumors to untreated controls): 2.6

## C=C1O[C@@](CO)(n2cnc3c(N)ncnc32)[C@H](O)[C@@H]1O [Decoyinine]
RIF-1 tumors; [1]
  T/C (ratio of tumor growth delay of treated tumors to untreated controls): 1.0

## C[C@H]1O[C@@H](O[C@H]2[C@@H](O)C[C@H](O[C@H]3[C@@H](O)C[C@H](O[C@H]4CC[C@@]5(C)[C@H](CC[C@@H]6[C@@H]5CC[C@]5(C)[C@@H](C7=CC(=O)OC7)CC[C@]65O)C4)O[C@@H]3C)O[C@@H]2C)C[C@H](O)[C@@H]1O [Digitoxin]
RIF-1 tumors; Table 5, permeant 40 mg/kg, no TNF
  T/C (ratio of tumor growth delay of treated tumors to untreated controls): 0.99

## O=c1c(-c2ccc(O)cc2)coc2cc(O)cc(O)c12 [Genistein]
RIF-1 tumors; Table 6, agent 80 mg/kg, saponin 10 mg/kg 1 hr prior where combined
  T/C (ratio of tumor growth delay of treated tumors to untreated controls): 1.1

## Cc1ccc(C(=O)Nc2ccc(S(=O)(=O)O)c3cc(S(=O)(=O)O)cc(S(=O)(=O)O)c23)cc1NC(=O)c1cccc(NC(=O)Nc2cccc(C(=O)Nc3cc(C(=O)Nc4ccc(S(=O)(=O)O)c5cc(S(=O)(=O)O)cc(S(=O)(=O)O)c45)ccc3C)c2)c1 [Suramin]
RIF-1 tumors; Table 6, agent 20 mg/kg, saponin 10 mg/kg 1 hr prior where combined
  T/C (ratio of tumor growth delay of treated tumors to untreated controls): 1.0

## N#C/C(=C\c1ccc(O)c(O)c1)C(N)=S [Tyrphostin 47]
RIF-1 tumors; Table 6, agent 60 mg/kg, EtOH as solvent, saponin 10 mg/kg 1 hr prior where combined
  T/C (ratio of tumor growth delay of treated tumors to untreated controls): 1.1

## CC[C@]1(O)C[C@@H]2CN(CCc3c([nH]c4ccccc34)[C@@](C(=O)OC)(c3cc4c(cc3OC)N(C)[C@H]3[C@@](O)(C(=O)OC)[C@H](OC(C)=O)[C@]5(CC)C=CCN6CC[C@]43[C@@H]65)C2)C1 [Vinblastine(VLB), Vinblastine]
RIF-1 tumors; [2]
  Treated (Table 7 column): 14.1 ± 1.57
RIF-1 tumors; in conjunction with saponin (Table 7)
  Efficacy of vinblastine, in words: greatly enhances the efficacy of the vinblastine
RIF-1 tumors; with saponin and collagen gel matrix (Table 7)
  Efficacy of vinblastine, in words: further enhances the efficacy of vinblastine
C3H mice; [2]
  Toxicity Deaths/# mice: 0/5
C3H mice; vinblastine with saponin and collagen gel matrix (Table 7)
  Lethal toxic side effects, in words: decreasing the observed lethal toxic side effects

## N.N.[Cl][Pt][Cl] [cisplatin]
Ovarian cancer cells
  Uptake of cisplatin by ovarian cancer cells: enhanced uptake

## Lysolecithin(type 1)
RIF-1 tumors; Table 5, permeant 10 mg/kg, no TNF
  T/C (ratio of tumor growth delay of treated tumors to untreated controls): 1.27

## Neomycin sulfate [Neomycin sulfate (NS)]
RIF-1 tumors; [1]
  T/C (ratio of tumor growth delay of treated tumors to untreated controls): 0.7
